Results on 3 molecules are retold here after US20260265176A1, “SUBSTITUTED CYCLOHEXENE AND CYCLOHEXANE INHIBITORS OF ORNITHINE AMINOTRANSFERASE” (Northwestern University, priority 2023, published 2026).

What all share (format): biochemical
The target in test [1] is T1, hOAT (Homo sapiens, UniProt P04181).
T1 construct: made in house; host or cells: Escherichia coli BL21 (DE3)
T1 sequence (P04181 26-439): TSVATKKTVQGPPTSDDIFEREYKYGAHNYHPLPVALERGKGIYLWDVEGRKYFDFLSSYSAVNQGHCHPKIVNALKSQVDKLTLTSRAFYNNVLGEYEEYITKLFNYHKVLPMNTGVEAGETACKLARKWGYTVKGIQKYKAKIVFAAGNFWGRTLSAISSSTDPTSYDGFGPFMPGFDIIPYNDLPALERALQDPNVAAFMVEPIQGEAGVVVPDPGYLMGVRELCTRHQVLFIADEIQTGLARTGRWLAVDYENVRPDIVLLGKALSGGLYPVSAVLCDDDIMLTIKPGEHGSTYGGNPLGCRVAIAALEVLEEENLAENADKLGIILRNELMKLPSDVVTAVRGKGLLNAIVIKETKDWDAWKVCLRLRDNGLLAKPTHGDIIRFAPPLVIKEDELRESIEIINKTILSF
Put plainly: Inactivation of hOAT, coupled enzyme assay (kinetic constants). Particulars: for kinact / kinact/K1, hOAT / Ki: inactivation of hOAT; for Ki: read-out: K1, hOAT. On the procedure:
(§1) Recombinant human brain γ-aminobutyric acid aminotransferase (hGABA-AT) was expressed and purified according to literature procedures with slight modifications.^26 Briefly, pelleted Expi293 cells were resuspended into buffer A containing 50 mM K4O7P2 pH 8.6, 300 mM NaCl, and 100 μM PLP. The suspension was lysed using four repeat cycles of sonication (10 s on, 10 s off, 20% amplitude) on ice followed by the addition of 12.5 mM MgCl, 125 μM CaCl, and 5 mg of lyophilized DNase I. The lysate incubated on ice for 60 minutes with periodic inversions followed by a two step centrifugation procedure to pellet cell debris. Step one included centrifugation at 18000 rpm for 60 minutes at 4° C. followed by the collection of supernatant and a secondary step at 20000 rpm for 45 minutes. The supernatant was collected, and the sample was loaded into a disposable 0.45 μm bottle-top vacuum filter system to remove remaining cell debris. The resulting sample was then loaded onto a Co^2+ immobilized metal affinity chromatography column pre-equilibrated with buffer A. The column was washed with 40 mL of buffer A before hGABA-AT was eluted using a step-wise elution gradient of buffer A supplemented with 200 mM imidazole. The step-wise gradient totaled 5 steps of increasing imidazole concentration (1 mM, 2 mM, 5 mM, 100 mM, 200 mM). Individual 4 mL fractions containing hGABA-AT were combined and concentrated to a volume of 3 mL using a 30000 Da molecular weight cutoff (MWCO) Amicon Ultra centrifugal filter device. For further purification, the sample was loaded onto a HiLoad Superdex-200PG column (16 mm×600 mm) pre-equilibrated with buffer A and subjected to size exclusion chromatography at a flow rate of 0.25 mL/min. PYCR1 was purified according to previously published protocols.^38 Coupled enzyme assays for hGABA-AT, hOAT, Ala-AT, and Asp-AT were carried out according to previous procedures.^26

Test [2] addresses T2, hGABA-AT (Homo sapiens, UniProt P80404).
T2 construct: made in house; host or cells: Expi293 cells
Put plainly: Inactivation of hGABA-AT, coupled enzyme assay (kinetic constants). Particulars: for kinact/K1, hGABA-AT: inactivation of hGABA-AT, K1 and kinact not determinable. On the procedure: as §1

In test [3] the target is T1, hOAT. Put plainly: Time-dependent reactivation experiment (dialysis) of hOAT inactivated by 17. On the procedure: Mass spectrometry, however, might differentiate those possibilities. To confirm irreversible inactivation of hOAT by 17, a time-dependent reactivation experiment (dialysis) was performed. […] Aliquots at different time intervals were collected and assayed to detect restored enzyme activity. […] It takes approximately 10 equiv of 17, however, to produce complete enzyme inactivation.
The dialysis experiment was conducted using previous protocols.^26,38

For test [4], the target named is T1, hOAT. As to the kind of experiment: Partition ratio / turnover number by titration of hOAT with inactivator. To be noted: for partition ratio: turnover number minus one. The text has this:
Determination of the Turnover Mechanism to Metabolites The partition ratio of an MBI is the ratio of compound that acts as a substrate relative to the compound that inactivates the enzyme. Ideally, plotting the enzyme activity remaining after inactivation versus equivalents of compound added will provide a straight line from 100 to 0% enzyme activity remaining. The x-intercept of this line would give the number of inactivator molecules required to inactivate a single enzyme active site (the turnover number). This number represents the total number of compound molecules that were engaged by the active site until the enzyme was inactivated. Of these compounds, only the final one will inactivate the enzyme, and the others will have been consumed as substrates. As a result, the partition ratio is the turnover number minus one (assuming a 1:1 stoichiometry of inactivator to enzyme in the inactivated complex).
The partition ratio of 17 was determined by titrating a known amount of hOAT with varying equivalents of inactivator (FIG. 7). The linear relationship of the remaining enzymatic activity was extrapolated to yield the exact number of equivalents of 17 to inactivate the enzyme completely. From this we determined the turnover number to be 4.27 and thus the partition ratio of 17 to be 3.27.
The turnover number for 17 was determined to be 2.2 by titrating a fixed amount of hOAT with varying equivalents of 17, measuring the remaining enzyme activities for the different equivalents of inhibitor, and employing the method of Pham et al.^32 (FIG. 24). The partition ratio, therefore, is 1.2.
The partition ratio was calculated using previous protocols.^26,28

Test [5] concerns the target T1, hOAT. Put plainly: Transient-state stopped-flow spectrophotometry of hOAT reacting with inactivator. Particulars: hyperbolic fit of kobs vs inactivator concentration, hOAT 17 μM, 20° C. On the procedure:
Vertical arrows indicate the sequence of the observed spectra after initiating the experiment. […] A sample of hOAT (17 μM) was mixed with 17 (0-11 mM) using a stopped-flow spectrophotometer, and the reaction was observed between 300 and 800 nm for 150 sec using CCD detection. Several representative spectra from the data set are shown here.
FIG. 16C depicts the dependence of observed rate constants on the concentration of [5]. Fitting to a rectangular hyperbolic function (kobs=klimit[5]/K[5]+[5] returned an observed limiting rate constant of 0.20±0.01 s^−1 and a dissociation constant for reversible formation of the external aldimine of 2.9±0.4 mM.
The data collected using stopped-flow spectrophotometry serves as additional evidence for the proposed mechanism. […]
The subsequent increase in absorbance at 325 nm would thus report the accumulation of both the turnover and inhibition products, with no difference in rates.
Transient-State Kinetic Characterization of hOAT with […]: A sample of hOAT (17 μM) was mixed with 17 (0-11 mM) at 20° C. using a rapid mixing stopped-flow spectrophotometer (TgK Scientific) equipped with charge-coupled device (CCD) detection, allowing for the collection time-resolved spectra. […] A reconstructed time zero point was included in the data and was obtained by adding the spectrum of the enzyme and the spectrum of the inhibitor when measured separately. […]

The mark [6] stands for this setting: from turnover number/partition ratio study, FIG. 24.
Setting [7] is: listed as (±) 22, hydrochloride.

T2 sequence (P80404 29-500): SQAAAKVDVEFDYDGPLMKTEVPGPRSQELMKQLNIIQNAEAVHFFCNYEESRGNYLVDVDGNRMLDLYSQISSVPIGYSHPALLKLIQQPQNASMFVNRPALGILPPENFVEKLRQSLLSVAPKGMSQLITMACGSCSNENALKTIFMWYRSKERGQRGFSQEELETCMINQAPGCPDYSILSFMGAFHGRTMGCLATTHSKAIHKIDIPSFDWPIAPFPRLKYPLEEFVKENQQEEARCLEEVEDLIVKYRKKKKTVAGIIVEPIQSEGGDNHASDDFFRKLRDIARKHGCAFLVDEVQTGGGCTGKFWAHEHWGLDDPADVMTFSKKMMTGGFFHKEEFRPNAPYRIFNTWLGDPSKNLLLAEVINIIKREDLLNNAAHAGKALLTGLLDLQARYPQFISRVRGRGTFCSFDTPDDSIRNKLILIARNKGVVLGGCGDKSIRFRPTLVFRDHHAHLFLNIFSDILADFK

As to `Cl.N[C@H]1C=C(C(=O)O)CC(F)(F)C1` [Compound 17, (R)-3-amino-5,5-difluorocyclohex-1-ene-1-carboxylic acid hydrochloride], in test [1], the kinact was 0.00467 s⁻¹; the “kinact/K1, hOAT” value was 17.3 M⁻¹ s⁻¹; the Ki amounted to 0.27 ± 0.07 mM. For the same molecule, the kinact/KI in test [1] (read-out: overall efficiency (kinact/KI) against hOAT (converted)) is 17.3 M⁻¹ s⁻¹. For the same molecule, in test [2], the “kinact/K1, hGABA-AT” value amounted to 2.83 M⁻¹ s⁻¹. For the same molecule, the “enzymatic activity recovered after dialysis” value in test [3] (72 hours of dialysis, hOAT treated with 0.6-10 equivalents of 17) is recorded as “No enzymatic activity was recovered”. Moreover, in test [3] (hOAT), the “equivalents needed to produce complete enzyme inactivation” value is “approximately 10 equiv”. For the same molecule, in test [4] (setting [6]), the “share of compound undergoing turnover to a product and PMP” value came to 55%; the “share of turnover resulting in inactivation” value is given as 45%. Further, in test [4] (linear extrapolation of remaining activity, FIG. 7), the turnover number is listed as 4.27. Also, the turnover number in test [4] (method of Pham et al., FIG. 24) came to 2.2. In test [4] (FIG. 7), the partition ratio is reported as 3.27. In addition, in test [4] (FIG. 24), the partition ratio was 1.2. The “observed limiting rate constant” value in test [5] turned out to be 0.20 ± 0.01 s⁻¹. Moreover, the Kd in test [5] (read-out: dissociation constant for reversible formation of the external aldimine) turned out to be 2.9 ± 0.4 mM.

For the molecule `Cl.N[C@@H]1C[C@H](C(=O)O)CC(F)(F)C1` (racemic) [(±)22, cis-5-Amino-3,3-difluorocyclohexane-1-carboxylic acid hydrochloride], the “inhibition of hOAT (in words)” value in test [1] (hydrochloride) was “No inhibition up to 10 mM”; in test [1] (setting [7]), “little or no inhibitory effect”. The entries for the “inhibition of hGABA-AT (in words)” value in test [2] (hydrochloride) and in test [2] (setting [7]) were “Weak reversible inhibition at 10 mM” and “little or no inhibitory effect”, respectively.

As to `Cl.N[C@H]1CC(C(=O)O)=CC(F)(F)C1` [Compound 17a, (S)-5-amino-3,3-difluorocyclohex-1-ene-1-carboxylic acid hydrochloride], in test [1], the kinact was 0.0025 s⁻¹; the “kinact/K1, hOAT” value worked out at 1.83 M⁻¹ s⁻¹; the Ki was 1.2 ± 0.4 mM. The “kinact/KI, fold less effective than that of 17 for hOAT” value in test [1] (relative to 17) is 10 fold. The “kinact/K1, hGABA-AT” value in test [2] is 2 M⁻¹ s⁻¹.
